These results are taken from patent publication USRE29842E, “Untriakontapeptide with opiate activity” (Hoffmann-La Roche Inc., priority 1977, dated 1978).

No end group written: not given here.

The subject of experiment [1] is opiate receptor, guinea pig brain membranes. As to the kind of experiment: Opiate agonist activity by receptor binding assay (method of Simon et al.). Particulars: for Percentage of inhibition of stereospecific binding: mean ± standard error from 4 determinations. How it is done: The opiate agonist activity of natural beta-endophine was determined by the method of Simon et al., Proc. Nat. Acad. Sci. 70, 1947 (1973) using guinea pig brain membranes.

For another experiment, the system named is rabbit fat cells. As to the kind of experiment: Lipolytic activity in rabbit fat cells (procedure of Li et al.). The class given is cell-based. The following applies: triplicate, mean ± standard error. An excerpt: The lypolytic activity of natural beta-endorphin was compared to the activity of ovine beta-lipotropin hormone in rabbit fat cells using the procedure of Li et al., Arch. Biochem. Biophys. 169, 669 (1975).

The conditions of experiment [2]: Hughes et al. Nature 258, 557 (1975); cited from earlier work.

Turning to “YGGFMTSEKSQTPLVTLFKNAIIKNAHKKGQ [beta-endorphin]”, the “Percentage of inhibition of stereospecific binding” value was determined as 60 ± 0.7 in experiment [1] (dose 1.0 (10-^7 M)) and 83 ± 0.2 in experiment [1] (dose 10.0 (10-^7 M)). In addition, the “Potency, times that for normophine on a molar basis” value in experiment [1] (molar basis) came to 3.42 times. Further, the “Lipolytic activity: glycerol production” value in the experiment with rabbit fat cells (dose 1.1 (unit not given)) is recorded as 0.66 ± 0.28 Micromole of glycerol producti; with rabbit fat cells (dose 10.0 (unit not given)), 1.42 ± 0.37 Micromole of glycerol producti.

As to `Oc1ccc2c3c1O[C@H]1[C@@H](O)C=C[C@H]4[C@@H](C2)NCC[C@@]341` [Normophine, reference compound], the “Percentage of inhibition of stereospecific binding” value in experiment [1] (dose 0.7 (10-^7 M)) was found to be 28 ± 0.8; in experiment [1] (dose 7.0 (10-^7 M)) it was 70 ± 0.9.

“H-Tyr-Gly-Gly-Phe-Met-OH (H-YGGFM-OH) [pentapeptide isolated from pig brains by Hughes et al]”: in experiment [2], the “Opiate agonist activity (in words)” value is given as “exhibits opiate agonist activity”.
